Assay results from ChEMBL document CHEMBL3813632, “Thiazolo[3,2-a]benzimidazol-3(2H)-one derivatives: Structure-activity relationships of selective nucleotide pyrophosphatase/phosphodiesterase1 (NPP1) inhibitors” (Bioorg Med Chem, 2016).
Calls of active or inactive are those of the source. The calls are words filed in the database; no cut-off is given here.

Columns and labels:
[1] = species: Homo sapiens; assay: Selectivity ratio of Ki for human recombinant NPP2 to Ki for human recombinant NPP1
[2] = species: Homo sapiens; assay: Selectivity ratio of Ki for human recombinant TNAP to Ki for human recombinant NPP1
[3] = biological target: T1, Ectonucleoside triphosphate diphosphohydrolase 3 (Homo sapiens) (UniProt O75355); assay: Inhibition of human recombinant NTPDase3 expressed in NS0 cells using ATP as substrate at 10 to 1000 uM preincubated with substrate followed by protein addition and subsequent incubation for 30 mins by capillary electrophoresis
T1 sequence (whole entry): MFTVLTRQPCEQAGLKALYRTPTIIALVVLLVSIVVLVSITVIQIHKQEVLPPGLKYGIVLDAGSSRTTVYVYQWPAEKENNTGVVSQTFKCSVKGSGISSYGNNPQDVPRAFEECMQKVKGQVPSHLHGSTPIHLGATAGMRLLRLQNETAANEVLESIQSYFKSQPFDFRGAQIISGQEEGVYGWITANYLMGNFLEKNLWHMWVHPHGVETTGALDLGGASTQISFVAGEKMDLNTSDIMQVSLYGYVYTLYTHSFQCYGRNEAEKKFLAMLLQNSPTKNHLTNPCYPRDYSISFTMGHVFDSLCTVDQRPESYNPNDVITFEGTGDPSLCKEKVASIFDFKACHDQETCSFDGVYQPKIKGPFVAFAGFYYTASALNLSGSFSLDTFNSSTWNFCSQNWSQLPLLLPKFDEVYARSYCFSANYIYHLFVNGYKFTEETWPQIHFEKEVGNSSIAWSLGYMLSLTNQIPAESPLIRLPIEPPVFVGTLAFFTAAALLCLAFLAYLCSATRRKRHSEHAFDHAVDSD

[4] = species: Homo sapiens; assay: Selectivity ratio of Ki for human recombinant soluble NTPDase2 to Ki for human recombinant NPP1
[5] = biological target: T2, Ectonucleotide pyrophosphatase/phosphodiesterase family member 1 (Homo sapiens) (UniProt P22413); assay: Uncompetitive inhibition of human recombinant NPP1 expressed in insect SF9 cells using ATP as substrate up to 2.8 uM preincubated with substrate followed by protein addition and subsequent incubation for 30 mins by Hanes-Woolf plot analysis
T2 sequence (whole entry): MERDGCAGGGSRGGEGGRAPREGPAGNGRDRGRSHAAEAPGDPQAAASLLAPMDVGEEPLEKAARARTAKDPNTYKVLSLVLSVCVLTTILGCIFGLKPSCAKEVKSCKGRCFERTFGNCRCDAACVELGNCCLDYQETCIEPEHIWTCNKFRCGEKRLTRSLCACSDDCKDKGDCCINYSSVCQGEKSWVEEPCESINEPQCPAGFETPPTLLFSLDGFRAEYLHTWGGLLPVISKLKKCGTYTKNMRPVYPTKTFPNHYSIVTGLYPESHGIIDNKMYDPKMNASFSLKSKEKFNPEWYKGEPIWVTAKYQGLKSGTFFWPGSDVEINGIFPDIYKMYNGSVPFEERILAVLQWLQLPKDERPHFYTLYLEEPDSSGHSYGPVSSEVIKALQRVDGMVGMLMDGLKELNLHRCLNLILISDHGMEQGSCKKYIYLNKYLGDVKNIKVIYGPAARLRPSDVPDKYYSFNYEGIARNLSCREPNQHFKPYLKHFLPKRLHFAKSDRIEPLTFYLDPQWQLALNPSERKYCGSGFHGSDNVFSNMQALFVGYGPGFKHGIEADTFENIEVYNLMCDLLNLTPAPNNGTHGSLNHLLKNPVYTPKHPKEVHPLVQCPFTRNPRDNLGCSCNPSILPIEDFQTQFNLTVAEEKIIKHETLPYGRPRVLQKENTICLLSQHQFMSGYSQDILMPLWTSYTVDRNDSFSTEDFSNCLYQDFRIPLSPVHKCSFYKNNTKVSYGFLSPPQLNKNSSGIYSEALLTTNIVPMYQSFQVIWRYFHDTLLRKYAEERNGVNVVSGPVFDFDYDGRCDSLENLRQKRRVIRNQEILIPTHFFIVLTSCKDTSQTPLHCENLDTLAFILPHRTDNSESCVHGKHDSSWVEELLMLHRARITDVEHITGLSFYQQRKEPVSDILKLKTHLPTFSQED

[6] = biological target: Autotaxin (Homo sapiens) (UniProt Q13822); assay: Inhibition of human recombinant NPP2 expressed in insect SF9 cells using 1-oleoylsn-glycero-3-phosphocholine as substrate at >100 uM preincubated with substrate followed by protein addition and subsequent incubation for 60 mins by colorimetric analysis
[7] = Retention time of the compound in MgCl2/CaCl2/CHES buffer at pH 9 by LC-MS analysis; assay type: physicochemical
[8] = Chemical stability of the compound at pH 9 at 25 degC after 8 hrs by HPLC-MS analysis; assay type: physicochemical; details: buffer, pH 9, 8 h
[9] = Chemical stability of the compound assessed as compound remaining at pH 9 at 37 degC after 8 hrs by HPLC-MS analysis; assay type: physicochemical; details: buffer, read-out: Stability
[10] = biological target: T3, Ectonucleoside triphosphate diphosphohydrolase 1 (Homo sapiens) (UniProt P49961); assay: Inhibition of human recombinant soluble NTPDase1 expressed in CHO cells using ATP as substrate at 10 to 1000 uM preincubated with substrate followed by protein addition and subsequent incubation for 30 mins by capillary electrophoresis
T3 sequence (whole entry): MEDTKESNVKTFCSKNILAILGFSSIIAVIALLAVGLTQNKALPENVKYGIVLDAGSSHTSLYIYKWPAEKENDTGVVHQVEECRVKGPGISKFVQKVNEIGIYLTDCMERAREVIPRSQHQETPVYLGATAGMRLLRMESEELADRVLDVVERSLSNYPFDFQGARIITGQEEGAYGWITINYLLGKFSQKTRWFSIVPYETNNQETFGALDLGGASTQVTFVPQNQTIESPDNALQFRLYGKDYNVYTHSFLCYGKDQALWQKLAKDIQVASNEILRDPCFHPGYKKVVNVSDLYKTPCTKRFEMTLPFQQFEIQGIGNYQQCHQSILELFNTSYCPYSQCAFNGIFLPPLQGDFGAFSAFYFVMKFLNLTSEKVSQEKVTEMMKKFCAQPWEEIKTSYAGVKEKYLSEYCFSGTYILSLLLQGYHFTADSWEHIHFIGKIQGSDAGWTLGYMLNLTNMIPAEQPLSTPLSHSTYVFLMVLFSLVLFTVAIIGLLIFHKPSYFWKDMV

Ratio Ki [1]: 1000
Ratio Ki [2]: 1000
inhibition [3]: inactive
Ratio Ki [4]: 1000
inhibition [5]: Active
inhibition [6]: Active
Retention_time [7]: 8.2 min
Stability [8]: Stable
remaining at 8 h [9]: 70.5%
inhibition [10]: inactive
Compound: O=c1/c(=C/c2ccc(I)o2)sc2nc3ccccc3n12
